{"source": "patent US20080176963A1", "about": "“TREATMENT OF BRAIN DISORDERS OF THE STRIATUM” (priority 2007, published 2008)", "key": {"[1]": {"tested_on": "indirect-pathway MSN synapses", "assay": "LTD induced by tetanic stimulation in striatal slices from reserpine-treated mice", "format": "cell-based, mouse"}, "[2]": {"tested_on": "indirect-pathway MSN synapses", "format": "cell-based, mouse"}, "direct pathway neurons": {"tested_on": "direct pathway neurons", "assay": "LTD induction at direct pathway synapses in striatal slices", "format": "cell-based, mouse", "settings": "URB754 5 μM"}, "[3]": {"tested_on": "indirect-pathway synapses", "assay": "DHPG-elicited depression of EPSCs (eCB-LTD), indirect pathway", "format": "cell-based, mouse"}, "medium spiny neurons": {"tested_on": "medium spiny neurons", "assay": "Effect of drug wash-in alone on EPSC amplitudes in striatal MSNs", "format": "cell-based, mouse", "settings": "URB597 1 μM; URB754 5 μM"}, "reserpine-treated mice [4]": {"tested_on": "reserpine-treated mice", "assay": "Catalepsy bar test in reserpine-treated mice", "format": "in vivo, mouse", "method": "(§1) Dopamine depletion and behaviour. Reserpine was administered i.p. at a concentration of 1 or 5 mgkg^−1, and electrophysiological and behavioural experiments were performed 18-24 h after injections. 6-Hydroxydopamine was injected bilaterally into the median forebrain bundle at a concentration of 5 μg μl^−1 to a total volume of 2 μL per side, and experiments were performed 48-60 h after injections. Catalepsy was measured with the bar test. Descent latency represents the time in seconds required for the mouse either to remove both paws from a bar (diameter 2 mm) placed 4 cm above the ground, or for one paw to touch the ground. Horizontal locomotor activity was measured in 15-min blocks with the ENV-510 test chamber and Activity Monitor software. Animals were tested 45-60 min after drug administration. All procedures involving animals were approved by the Institutional Animal Care and Use Committee.\n(§2) Reserpine treatment. To study the effects of dopamine depletion, reserpine (Sigma-Aldrich) was dissolved in 1% glacial acetic acid at a concentration of 2.5 mg/mL. This solution was diluted with dH20 by a factor of 10, to yield a final concentration of 0.1% glacial acetic acid and 250 μg/mL reserpine This reserpine solution was injected i.p. at a concentration of 1 mg/kg or 5 mg/kg as stated in the text.\n(§3) Behavior. 3- to 4-week-old C57/BL6 wild-type mice were injected with reserpine (1 mg/kg i.p.) or 6-OHDA as described above. […] Animals were tested 18-24 hours after reserpine injections and 48-60 hours after 6-OHDA injections. […] All drugs were injected i.p. in 0.9% NaCl at a volume of 20 μL/gm. The injection solution for URB597 was prepared by diluting a stock solution prepared in DMSO into saline, with a final concentration of 0.5% DMSO. Animals were then tested again at 45-60 minutes following drug injections. […]\n(§4) To test catalepsy, a horizontal bar (2 mm diameter) was placed 4 cm above the ground. […] Descent latency was measured as the delay to when either both paws were removed from the bar or one paw touched the ground. […]"}, "6-OHDA-treated mice [5]": {"tested_on": "6-OHDA-treated mice", "format": "in vivo, mouse", "method": "as §1\n(§5) 6-hydroxydopamine treatment Bilateral lesions of the substantia nigra pars compacta were achieved by injecting 6-OHDA Bromide (Sigma-Aldrich) into the right and left medial forebrain bundles. Mice were anesthetized with i.p. injections of ketamine (100 mg/kg)/xylazine (10 mg/kg) and placed into a stereotactic frame. 6-OHDA was prepared immediately before injections at a concentration of 5 μg/μL in 0.02% ascorbic acid. Injections were performed using 33 gauge cannulae (Plastics One) attached to a syringe pump (Harvard Apparatus) running at 0.5 μL/min, to a total volume of 2 μL/side at the following coordinates: AP: −1.5 mm; ML±1 mm; DV: 4.8 mm. Brain slices were obtained from 6-OHDA treated animals at 48-60 hour after injections.\n(§6) Behavior. 3- to 4-week-old C57/BL6 wild-type mice were injected with reserpine (1 mg/kg i.p.) or 6-OHDA as described above. […] Animals were tested 18-24 hours after reserpine injections and 48-60 hours after 6-OHDA injections. […]\nas §4"}, "reserpine-treated mice [6]": {"tested_on": "reserpine-treated mice", "assay": "Open-field locomotor activity in reserpine-treated mice", "format": "in vivo, mouse", "method": "as §1, §2, §3, §4"}, "6-OHDA-treated mice [7]": {"tested_on": "6-OHDA-treated mice", "settings": "mouse, in vivo", "method": "as §1, §5, §6, §4"}, "striatal dopamine": {"tested_on": "striatal dopamine", "settings": "18-24 hours after reserpine injection; cited from earlier work"}, "[8]": {"tested_on": "indirect-pathway synapses", "assay": "Presynaptic inhibition of EPSCs by CB1 receptor agonist, indirect pathway", "format": "cell-based, mouse", "settings": "WIN55,212 1 μM"}, "direct-pathway synapses [9]": {"tested_on": "direct-pathway synapses", "assay": "Presynaptic inhibition of EPSCs by CB1 receptor agonist, direct pathway", "format": "cell-based, mouse", "settings": "WIN55,212 1 μM; control mice"}, "direct-pathway synapses [10]": {"tested_on": "direct-pathway synapses", "assay": "DHPG-elicited depression of EPSCs (eCB-LTD), direct pathway", "format": "cell-based, mouse", "settings": "DHPG 100 μM for 10 min, MSNs held at +50 mV (so in the source)"}, "[11]": {"tested_on": "indirect-pathway MSN synapses", "assay": "LTD induced by high-frequency afferent stimulation, whole-cell recording in striatal slices of control mice", "format": "cell-based, mouse", "settings": "indirect-pathway MSNs; AM251 1 μM; sulpiride 10 μM; methysergide 4 μM, GR125487 1 μM, LY278584 1 μM, prazosin 2 μM, propranolol 1 μM; without drug 51±5%"}, "tyrosine hydroxylase": {"tested_on": "tyrosine hydroxylase", "assay": "Tyrosine hydroxylase staining of striatum after 6-OHDA", "format": "in vivo, mouse", "settings": "48 hours after bilateral 6-OHDA injection (5 μg/μL, 2 μL/side)", "method": "as §5\nTyrosine hydroxylase staining. The degree of dopamine denervation was assessed at 48 hours post-injection in a subset of 6-OHDA-treated mice by tyrosine hydroxylase (TH) staining. Mouse forebrains were fixed at 4° C. for 1 hour in 4% paraformaldehyde (in PBS), and then kept in PBS overnight at 4° C. Brains were transferred to 30% sucrose (in PBS) for 2 hours, blocked in O.C.T. and frozen. […] coronal slices containing the striatum were collected on slides using a cryostat. […] Images were acquired on a Zeiss Axioskop 2 coupled to a Hamamatsu CCD and analyzed using Metamorph software."}, "MSNs": {"tested_on": "MSNs", "assay": "Block of carbachol-induced inward membrane current in MSNs", "format": "cell-based, mouse", "settings": "pirenzepine; data not shown", "source_text": "FIG. 5. […] The arrow marks the time of LTD induction. […] Error bars are ±SEM."}}, "note": "Read-outs that look alike come from different tables or passages of the source.", "data": [{"smiles": "Cc1ccc(Nc2nc3ccc(C)cc3c(=O)o2)cc1", "note": "[URB754]", "values": [{"measurement": "EPSC after LTD induction, % of baseline at 30-40 min", "setting": "[1]", "result": "68±13 % of baseline"}, {"measurement": "EPSC after LTD induction, % of baseline at 30-40 min", "setting": "[2]", "result": "69±9 % of baseline"}, {"measurement": "LTD at direct pathway neurons in the presence of drug", "setting": "direct pathway neurons", "result": "nor did it unmask LTD"}, {"measurement": "EPSC, % of baseline at 20-30 min after brief DHPG application", "setting": "[3]", "result": "84±6 % of baseline"}, {"measurement": "Effect of drug alone on EPSC amplitudes / synaptic transmission", "setting": "medium spiny neurons", "result": "no effect"}, {"measurement": "Descent latency, catalepsy bar test", "setting": "reserpine-treated mice [4]; reserpine-treated mice, URB754 1.5 mg/kg i.p., quinpirole 1.5 mg/kg i.p., alone or coadministered", "result": "no significant decrease in catalepsy"}, {"measurement": "Descent latency, catalepsy bar test", "setting": "6-OHDA-treated mice [5]; 6-OHDA-treated mice, URB754 1.5 mg/kg i.p., quinpirole 1.5 mg/kg i.p., alone or coadministered", "result": "no significant decrease in catalepsy"}, {"measurement": "Distance traveled in 15 min, open field", "setting": "reserpine-treated mice [6]; mouse, in vivo", "result": "no significant decrease in catalepsy or increase in locomotor activity"}, {"measurement": "Distance traveled in 15 min, open field", "setting": "6-OHDA-treated mice [7]", "result": "no significant decrease in catalepsy or increase in locomotor activity"}]}, {"smiles": "COC(=O)[C@H]1[C@H]2C[C@@H]3c4[nH]c5cc(OC)ccc5c4CCN3C[C@H]2C[C@@H](OC(=O)c2cc(OC)c(OC)c(OC)c2)[C@@H]1OC", "note": "[reserpine]", "values": [{"measurement": "EPSC after LTD induction, % of baseline at 30-40 min", "setting": "[1]; mice given reserpine 5 mg/kg i.p. 18-24 h earlier, in bath quinpirole 10 μM, URB597 1 μM or URB754 5 μM, reserpine line = no drug in bath", "result": "122±8 % of baseline"}, {"measurement": "Descent latency, catalepsy bar test", "setting": "reserpine-treated mice [4]; reserpine 1 mg/kg i.p. 18-24 h before, URB597 1 mg/kg i.p., quinpirole 1.5 mg/kg i.p., alone or together, 60 s maximum, reserpine line = before drug", "result": "more than 60 s"}, {"measurement": "Distance traveled in 15 min, open field", "setting": "reserpine-treated mice [6]; reserpine 1 mg/kg i.p. 18-24 h before, URB597 1 mg/kg i.p., quinpirole 1.5 mg/kg i.p., 45-60 min after injection, reserpine line = before drug", "result": "48±11", "unit": "cm"}, {"measurement": "Striatal dopamine", "setting": "striatal dopamine", "result": "< 1 % of normal levels"}]}, {"smiles": "Cc1c(C(=O)c2cccc3ccccc23)c2cccc3c2n1[C@H](CN1CCOCC1)CO3", "note": "[WIN55,212]", "values": [{"measurement": "EPSC, % of baseline at 15-20 min after wash-in", "setting": "[8]; control mice", "result": "47±7 % of baseline"}, {"measurement": "EPSC, % of baseline at 15-20 min after washing", "setting": "[8]; dopamine-depleted animals (reserpine and 6-OHDA pooled)", "result": "58±5 % of baseline"}, {"measurement": "EPSC, % of baseline at 15-20 min after wash-in", "setting": "direct-pathway synapses [9]", "result": "56±8 % of baseline"}]}, {"smiles": "N[C@H](C(=O)O)c1cc(O)cc(O)c1", "note": "[DHPG, (S)-3,5-dihydroxyphenylglycine]", "values": [{"measurement": "EPSC, % of baseline at 20-30 min after brief DHPG application", "setting": "[3]; DHPG 100 μM for 1 min, alone or in the presence of quinpirole 10 μM or URB754", "result": "98±5 % of baseline"}, {"measurement": "EPSC, % of baseline at 30-40 min", "setting": "[3]; DHPG 100 μM for 10 min, MSNs held at +50 mV (so in the source)", "result": "64±5 % of baseline"}, {"measurement": "EPSC, % of baseline at 30-40 min", "setting": "direct-pathway synapses [10]", "result": "95±9 % of baseline"}]}, {"smiles": "NC(=O)c1cccc(-c2cccc(OC(=O)NC3CCCCC3)c2)c1", "note": "[URB597]", "values": [{"measurement": "EPSC after LTD induction, % of baseline at 30-40 min", "setting": "[1]", "result": "62±5 % of baseline"}, {"measurement": "EPSC after LTD induction, % of baseline at 30-40 min", "setting": "[2]", "result": "55±7 % of baseline"}, {"measurement": "Effect of drug alone on EPSC amplitudes / synaptic transmission", "setting": "medium spiny neurons", "result": "no effect"}, {"measurement": "Descent latency, catalepsy bar test", "setting": "reserpine-treated mice [4]; mouse, in vivo", "result": "no significant decrease in catalepsy"}, {"measurement": "Descent latency, catalepsy bar test", "setting": "6-OHDA-treated mice [5]; mouse, in vivo", "result": "no significant decrease in catalepsy"}, {"measurement": "Distance traveled in 15 min, open field", "setting": "reserpine-treated mice [6]; mouse, in vivo", "result": "no significant decrease in catalepsy or increase in locomotor activity"}, {"measurement": "Distance traveled in 15 min, open field", "setting": "6-OHDA-treated mice [7]", "result": "no significant decrease in catalepsy or increase in locomotor activity"}]}, {"smiles": "CCN1CCCC1CNC(=O)c1cc(S(N)(=O)=O)ccc1OC", "note": "(centres unmarked) [sulpiride]", "values": [{"measurement": "EPSC after LTD induction, % of baseline at 30-40 min", "setting": "[11]", "result": "96±12 % of baseline"}]}, {"smiles": "NCCc1cc(O)c(O)cc1O", "note": "[6-OHDA, 6-hydroxydopamine]", "values": [{"measurement": "EPSC after LTD induction, % of baseline at 30-40 min", "setting": "[2]", "result": "111±13 % of baseline"}, {"measurement": "Descent latency, catalepsy bar test", "setting": "6-OHDA-treated mice [5]; mouse, in vivo", "result": "45 ± 4", "unit": "s"}, {"measurement": "Distance traveled in 15 min, open field", "setting": "6-OHDA-treated mice [7]", "result": "236±52", "unit": "cm"}, {"measurement": "Immunoreactivity for tyrosine hydroxylase in the striatum", "setting": "tyrosine hydroxylase", "result": "34±4 % of control"}]}, {"smiles": "CN1CCN(CC(=O)N2c3ccccc3C(=O)Nc3cccnc32)CC1", "note": "[pirenzepine]", "values": [{"measurement": "Block of carbachol-induced inward membrane current", "setting": "MSNs", "result": "block a carbachol-induced inward membrane current"}]}]}
